Drawing on ChEMBL document CHEMBL5352454, “Design, synthesis, and evaluation of tricyclic compounds containing phenyl-tetrazole as XOR inhibitors” (Eur J Med Chem, 2023), this text covers IC50, inhibition and Activity for 22 compounds.

Test [1] deals with T1, Xanthine dehydrogenase/oxidase (Homo sapiens, UniProt P47989). Briefly: Inhibition of XOR (unknown origin) using xanthine as substrate incubated for 3 mins followed by xanthine addition by spectroscopy based analysis.
Test [2] has as its target T1, Xanthine dehydrogenase/oxidase. Briefly: Inhibition of XOR (unknown origin) using xanthine as substrate at 10 uM incubated for 3 mins followed by xanthine addition by spectroscopy based analysis relative to control. To be noted: 0.05 h.
Test [3] deals with Mus musculus. Briefly: Hypouricemic activity in hypoxanthine/potassium oxonate-induced hyperuricemia mouse model assessed as reduction in uric acid level at 5 mg/kg, IG measured after 3 hrs. Type of test: functional, organism-based.
Test [4] has as its system Mus musculus. Description: Hypouricemic activity in hypoxanthine/potassium oxonate-induced hyperuricemia mouse model assessed as reduction in serum uric acid level at 5 mg/kg, IG measured upto 9 hrs. Type of test: functional, organism-based.
The test system of test [5] is Mus musculus. Briefly: Hypouricemic activity in hypoxanthine/potassium oxonate-induced hyperuricemia mouse model assessed as reduction in uric acid level at 5 mg/kg, IG measured after 3 to 5 hrs. It is filed as functional, organism-based. To be noted: time 3-5 hrs.

The structures appear in SMILES notation. Activity calls are given as the source filed them. No cut-off for these calls is given here.

T1 sequence (P47989 whole entry): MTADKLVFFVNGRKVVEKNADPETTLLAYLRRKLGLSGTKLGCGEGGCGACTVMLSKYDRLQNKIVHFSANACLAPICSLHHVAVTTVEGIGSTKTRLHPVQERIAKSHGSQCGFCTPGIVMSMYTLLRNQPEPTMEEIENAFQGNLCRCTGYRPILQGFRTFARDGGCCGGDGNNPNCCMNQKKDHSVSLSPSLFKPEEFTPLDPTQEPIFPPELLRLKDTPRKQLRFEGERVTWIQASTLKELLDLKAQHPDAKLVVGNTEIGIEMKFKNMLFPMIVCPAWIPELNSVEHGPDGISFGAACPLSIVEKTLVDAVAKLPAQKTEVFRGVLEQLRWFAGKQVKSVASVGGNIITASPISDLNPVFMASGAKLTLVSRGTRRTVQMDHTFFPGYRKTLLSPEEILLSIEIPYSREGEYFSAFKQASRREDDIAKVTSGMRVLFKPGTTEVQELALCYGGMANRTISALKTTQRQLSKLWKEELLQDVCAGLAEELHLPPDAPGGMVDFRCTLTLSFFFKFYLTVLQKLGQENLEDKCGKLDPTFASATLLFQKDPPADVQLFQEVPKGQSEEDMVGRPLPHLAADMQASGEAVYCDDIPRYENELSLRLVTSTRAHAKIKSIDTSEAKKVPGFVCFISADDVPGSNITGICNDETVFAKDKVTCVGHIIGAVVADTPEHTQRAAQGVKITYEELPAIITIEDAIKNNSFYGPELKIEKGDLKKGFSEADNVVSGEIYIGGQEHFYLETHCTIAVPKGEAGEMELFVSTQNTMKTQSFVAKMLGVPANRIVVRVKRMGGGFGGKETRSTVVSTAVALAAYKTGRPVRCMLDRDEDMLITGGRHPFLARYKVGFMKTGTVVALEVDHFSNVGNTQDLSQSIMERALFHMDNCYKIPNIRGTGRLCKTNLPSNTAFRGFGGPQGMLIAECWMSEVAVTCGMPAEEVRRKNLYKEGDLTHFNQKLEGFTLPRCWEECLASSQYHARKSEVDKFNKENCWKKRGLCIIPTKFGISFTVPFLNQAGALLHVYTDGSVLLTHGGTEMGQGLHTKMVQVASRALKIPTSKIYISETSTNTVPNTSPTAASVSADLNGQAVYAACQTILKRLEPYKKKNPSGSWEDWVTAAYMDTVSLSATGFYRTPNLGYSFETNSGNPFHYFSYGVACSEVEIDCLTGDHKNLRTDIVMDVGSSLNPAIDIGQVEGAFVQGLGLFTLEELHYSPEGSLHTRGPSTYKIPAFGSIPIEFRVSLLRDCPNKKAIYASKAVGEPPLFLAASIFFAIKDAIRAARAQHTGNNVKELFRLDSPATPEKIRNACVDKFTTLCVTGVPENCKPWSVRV

As for `O=Cc1ccccc1-c1ccc(-c2nnn[nH]2)cc1`, in test [1], the IC50 was determined as 490 nM.

In test [1], `O=C(O)c1ccc(-c2ccc(-c3nnn[nH]3)cc2)cc1Cl` returned an IC50 of 410 nM.

For the compound `COc1ccc(-c2ccc(-c3nnn[nH]3)cc2)cc1`, the midpoint of inhibition in test [1], the IC50, lay at 1390 nM.

Compound `CCOc1ccccc1-c1ccc(-c2nnn[nH]2)cc1` registered an inhibition at 10 µM in test [2] of less than 50%.

Regarding `c1cc(-c2ccc(-c3nnn[nH]3)cc2)n[nH]1`, in test [2], the inhibition at 10 µM is less than 50%.

Turning to `O=Cc1cc(Cl)ccc1-c1ccc(-c2nnn[nH]2)cc1`, 540 nM corresponded to half-maximal inhibition in test [1] (IC50).

`COc1ccccc1-c1ccc(-c2nnn[nH]2)cc1`: in test [1], half-maximal inhibition (IC50) was put at 1690 nM.

Regarding `COc1cccc(-c2ccc(-c3nnn[nH]3)cc2)c1`, the IC50 in test [1] came out at 2090 nM.

Turning to `c1cc(-c2ccc(-c3nnn[nH]3)cc2)cs1`, the inhibition at 10 µM in test [2] was less than 50%.

In turn, `CCOc1ccc(-c2ccc(-c3nnn[nH]3)cc2)cc1` registered an IC50 in test [1] of 440 nM.

Take `CC(=O)c1ccc(-c2ccc(-c3nnn[nH]3)cc2)cc1`: the IC50 in test [1] turned out to be 180 nM.

In test [1], `Cc1nc(-c2ccc(OCC(C)C)c(C#N)c2)sc1C(=O)O` [FEBUXOSTAT] returned an IC50 of 6.91 nM. Moreover, in the test on Mus musculus [3], the outcome was Active.

Regarding `O=C(O)c1cc(-c2ccc(-c3nnn[nH]3)cc2)ccc1Cl`, the IC50 in test [1] amounted to 720 nM.

With `O=C(Nc1ccc(Cl)cc1)c1ccc(-c2nnn[nH]2)cc1`, the result in the test on Mus musculus [4] and in the test on Mus musculus [5] was Active. Also, the midpoint of inhibition in test [1], the IC50, lay at 26.3 nM.

Turning to `CCCOc1ccc(NC(=O)c2ccc(-c3nnn[nH]3)cc2)cc1`, in test [1], the IC50 was found to be 160 nM.

`c1cc(-c2ccc(-c3nnn[nH]3)cc2)co1`: the inhibition at 10 µM in test [2] was less than 50%.

In the case of `CCOc1ccc(NC(=O)c2ccc(-c3nnn[nH]3)cc2)cc1`, the result with Mus musculus [4] and with Mus musculus [5] was Active. Also, the IC50 in test [1] is 29.3 nM.

The compound `c1ncc(-c2ccc(-c3nnn[nH]3)cc2)cn1` had an IC50 in test [1] of 920 nM.

On to `COc1ccc(NC(=O)c2ccc(-c3nnn[nH]3)cc2)cc1`, for which the half-inhibitory concentration (IC50) in test [1] turned out to be 40 nM.

For the compound `CC(C)Oc1ccc(NC(=O)c2ccc(-c3nnn[nH]3)cc2)cc1`, the result in the test with Mus musculus [4] and in the test on Mus musculus [5] was Active. This compound also displayed an IC50 in test [1] of 55 nM.

For the compound `CC(C)(C)c1ccc(-c2ccc(-c3nnn[nH]3)cc2)cc1`, the IC50 in test [1] worked out at 4230 nM.

`CCOc1ccc(CNC(=O)c2ccc(-c3nnn[nH]3)cc2)cc1` displayed an IC50 in test [1] of 370 nM.
